Laboratory results as given in patent US9333214B2 (priority 2007, dated 2016).

Columns and labels:
P. aeruginosa = experiment: Amikacin susceptibility testing (MIC) of P. aeruginosa sputum isolates; type: cell-based; settings: for MIC: Pseudomonas aeruginosa
Description: Quantitative culture of sputum samples and subsequent amikacin susceptibility testing of each morphologically distinct P. aeruginosa were performed. The MIC of amikacin for the isolates with the highest MIC cultured from each subject at screening and Day 14 was documented. The density (CFU per gram of sputum) of P. aeruginosa in sputum was calculated as the log10 value for the sum of all morphotypes.

[1] = rat, in vivo
[2] = Preclinical pharmacokinetics after inhalation in rats; settings: equal dose by inhalation
[3] = system: P. aeruginosa strain (mucoid strain 3064); experiment: Rat model of chronic pulmonary infection with Pseudomonas (agar beads); type: in vivo, rats

Row | MIC (P. aeruginosa; 0 h, Study 1, baseline (Day 0)) | MIC (P. aeruginosa; 336 h, Study 1, Day 14) | MIC (P. aeruginosa; Study 2, baseline) | mean MIC of amikacin for P. aeruginosa isolates (P. aeruginosa; Study 1, baseline (Day 0)) | SMILES | time to undetectable lung levels after cessation of administration [1] | AUC of drug in the kidneys vs Liposomal Amikacin aerosol [2] | bacteria in lungs ([3]; 60 mg/kg (given twice per day) daily for 28 days) | bacterial density (log10CFU/lung) vs saline control ([3]; BID for 14 days, 30 mg/kg per dose)
1 | 8 µg/mL | 30.8 µg/mL | 41 µg/mL | 8.04 µg/mL | NCC[C@H](O)C(=O)N[C@@H]1C[C@H](N)[C@@H](O[C@H]2O[C@H](CN)[C@@H](O)[C@H](O)[C@H]2O)[C@H](O)[C@H]1O[C@H]1O[C@H](CO)[C@@H](O)[C@H](N)[C@H]1O [amikacin] |  |  |  | 
2 |  |  |  |  | NC[C@H]1O[C@H](O[C@H]2[C@H](O)[C@@H](O[C@H]3O[C@H](CO)[C@@H](O)[C@H](N)[C@H]3O)[C@H](N)C[C@@H]2N)[C@H](N)C[C@@H]1O [tobramycin] | ≤ 6 h | significantly higher | below the limit of detection | significant reduction
